Source: patent publication US20240067651A1 (Biohaven Therapeutics Ltd., priority 2019, published 2024)
Each block holds one compound with its values, some of them ahead of it.

How the values were obtained:
[1] = Stability in Simulated Gastric Fluid (SGF); format: in vitro ADME; design: key: % parent compound remaining relative to 0-minute sample
Method in brief: (§1)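 Compound at 2 μg/mL final was incubated at 37° C with orbital shaking in SGF containing pepsin (pH 1.2) or SIF containing pancreatin (pH 6.8), sampled from 0 to 60 minutes. Parent remaining was measured by LC-MS/MS relative to the 0-minute sample; half-life came from ln(% remaining) versus time when enough points existed.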

[2] = Stability in Simulated Intestinal Fluid (SIF); format: in vitro ADME; design: key: % parent compound remaining relative to 0-minute sample
Method in brief: as §1

Caco-2 monolayer = test: Caco-2 Permeability Assay; format: in vitro ADME, human
Method in brief: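 Caco-2 monolayers cultured 21 days (TEER >600 […]); test article at 10 μM in HBSS/HEPES pH 7.4 transport medium, dosed apical or basolateral, ±Pgp inhibitor. Incubated 90 min at 37 °C; both compartments quantified by LC-MS/MS. Papp (A→B, B→A), efflux ratio and % recovery calculated.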

Plasma Stability = format: in vitro ADME, human
Method in brief: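 Compounds incubated at 1 μM in fresh human plasma for 1 hour at 37° C, then protein-precipitated with acetonitrile/formic acid containing internal standard. Remaining parent measured by LC-MS/MS in triplicate, expressed as percent of control remaining.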

[3] = % remaining after 1 h in simulated gastric fluid
[4] = % remaining after 1 h in simulated intestinal fluid
[5] = % remaining after 1 h in human plasma
[6] = simulated gastric fluid, remaining at 1 h
[7] = simulated intestinal fluid, remaining at 1 h
[8] = % remaining at 1 h, SGF with pepsin pH 1.2, 2 μg/mL, 37° C.
[9] = % remaining at 1 h, SIF with pancreatin pH 6.8, 2 μg/mL, 37° C.
[10] = donor 10 μM, 90 minutes, 37° C., direction not given
[11] = % remaining at 1 h, human plasma, 1 μM, 37° C.
[12] = % remaining at 1 h in simulated gastric fluid
[13] = % remaining at 1 h in simulated intestinal fluid
[14] = % remaining at 1 h in human plasma

Compound: 5-[{[4-(carbamoyloxy)butoxy]carbon-yl}oxy)methyl]-1-[2-(propan-2-yloxy)ethyl]-2-sulfanylidene-1H,2H,3H,4H,5H-pyrrolo[3,2-d]pyrimidin-4-one [Example 411]
- SGF [1, 3]: 92% remaining
- SIF [2, 4]: 22% remaining
- Caco-2 Papp (Caco-2 monolayer; Caco-2 monolayer): <1.07 nm/s
- human Plasma stability (Plasma Stability; [5]): 1% remaining

- SGF [1, 3]: 99% remaining
- SIF [2, 4]: 89% remaining
- Caco-2 Papp (Caco-2 monolayer; Caco-2 monolayer): 246 nm/s
- human Plasma stability (Plasma Stability; [5]): 99% remaining
Compound: 5-{({2-[2-(carbamoyloxy)ethoxy]ethoxy}car-bonyl)oxy]methyl}-1-[2-(propan-2-yloxy)ethyl]-2-sulfanylidene-1H,2H,3H,4H,5H-pyrrolo[3,2-d]pyrimidin-4-one [Example 402]

Compound: 5-{[2-({[(5-{[(2R)-2-{[(tert-butoxy)carbonyl]amino}-4-methylpentanoyl]oxy}penta-noyl)oxy]methyl}sulfanyl)-4-oxo-1-[2-(propan-2-yloxy)ethyl]-1H,4H,5H-pyrrolo[3,2-d]pyrimidin-5-yl]methoxy}-5-oxopentyl (2R)-2-{[(tert-butoxy)carbonyl]amino}-4-methylpentanoate [Example 348]
- SGF [1, 6]: 88% remaining
- SIF [2, 7]: 20% remaining
- Caco-2 Papp (Caco-2 monolayer; Caco-2 monolayer): <0.965 nm/s
- human Plasma stability (Plasma Stability; human plasma, remaining at 1 h): 33% remaining

Compound: 5-{[2-({[(5-{[(2S)-2-{[(tert-butoxy)carbonyl]amino}-4-methylpentanoyl]oxy}penta-noyl)oxy]methyl}sulfanyl)-4-oxo-1-[2-(propan-2-yloxy)ethyl]-1H,4H,5H-pyrrolo[3,2-d]pyrimidin-5-yl]methoxy}-5-oxopentyl (2S)-2-{[(tert-butoxy)carbonyl]amino}-4-methylpentanoate [Example 343]
- SGF ([1]; % remaining @ 1 h): 82% remaining
- SIF ([2]; % remaining @ 1 h): 29% remaining
- Caco-2 Papp (Caco-2 monolayer; Caco-2): 46.7 nm/s
- human Plasma stability (Plasma Stability; % remaining @ 1 h): 1% remaining

Compound: 5-{[({2-[2-(2-{[(tert-butoxy)carbonyl]amino}ethoxy)eth-oxy]ethoxy}carbonyl)oxy]methyl}-1-[2-(propan-2-yloxy)ethyl]-2-sulfanylidene-1H,2H,3H,4H,5H-pyrrolo[3,2-d]pyrimidin-4-one [Example 370]
- SGF [1, 6]: 99% remaining
- SIF [2, 7]: 35% remaining
- Caco-2 Papp (Caco-2 monolayer; Caco-2 monolayer): 15.4 nm/s
- human Plasma stability (Plasma Stability; human plasma, remaining at 1 h): 1% remaining

- SGF [1, 3]: 94% remaining
- SIF [2, 4]: 28% remaining
- Caco-2 Papp (Caco-2 monolayer; Caco-2 monolayer): <1.07 nm/s
- human Plasma stability (Plasma Stability; [5]): 4% remaining
Compound: 15-[2-(propan-2-yloxy)ethyl]-14-sulfanylidene-3,5,9,11-tetraoxa-1,13,15-triazatricyclo[11.5.2.0^{16,19}]icosa 16(19),17-diene-4,10,20-trione [Example 409]

- SGF [1, 3]: 92% remaining
- SIF [2, 4]: 86% remaining
- Caco-2 Papp (Caco-2 monolayer; Caco-2 monolayer): 50.8 nm/s
- human Plasma stability (Plasma Stability; [5]): 77% remaining
Compound: 17-[2-(propan-2-yloxy)ethyl]-16-sulfanylidene-3,5,8,11,13-pentaoxa-1,15,17-triazatricyclo[13.5.2.0^{18,21}]docosa-18(21),19-diene-4,12,22-trione [Example 404]

- SGF [1, 8]: 84%
- SIF [2, 9]: 89%
- Caco-2 Papp (Caco-2 monolayer; [10]): 419 nm/s
- human Plasma stability (Plasma Stability; [11]): 99%
Compound: CC(C)OCCn1c(=S)[nH]c(=O)c2c1ccn2COC(=O)[C@H]1CCCN1C(=O)OC(C)(C)C [Example 3, 1-tert-butyl 2-{4-oxo-1-[2-(propan-2-yloxy)ethyl]-2-sulfanylidene-1H,2H,3H,4H,5H-pyrrolo[3,2-d]pyrimidin-5-yl} methyl (2R)-pyrrolidine-1,2-dicarboxylate]

- SGF [1, 8]: 90%
- SIF [2, 9]: 76%
- Caco-2 Papp (Caco-2 monolayer; [10]): 140 nm/s
- human Plasma stability (Plasma Stability; [11]): 97%
Compound: CC(C)OCCn1c(=S)[nH]c(=O)c2c1ccn2COC(=O)[C@H]1CCCN1C(=O)OCC1c2ccccc2-c2ccccc21 [Example 5, 1-(9H-fluoren-9-ylmethyl) 2-{4-oxo-1-[2-(propan-2-yloxy)ethyl]-2-sulfanylidene-1H, 2H,3H,4H,5H-pyrrolo[3,2-d]pyrimidin-5-yl}methyl(2R)-pyrrolidine-1,2-dicarboxylate]

Compound: CC(C)OCCn1c(=S)[nH]c(=O)c2c1ccn2COC(=O)CCCCNC(=O)CN.O=C(O)C(F)(F)F [Example 15, trifluoroacetic acid {4-oxo-1-[2-(propan-2-yloxy)ethyl]-2-sulfanylidene-1H,2H,3H,4H,5H-pyrrolo[3,2-d]pyrimidin-5-yl} methyl 5-(2-aminoacetamido)pentanoate]
- SGF [1, 12]: 100%
- SIF [2, 13]: 4% remaining
- Caco-2 Papp (Caco-2 monolayer; Caco-2 monolayer): >5.67 nm/s
- human Plasma stability (Plasma Stability; [14]): 9% remaining

Compound: CC(C)OCCn1c(=S)[nH]c(=O)c2c1ccn2COC(=O)CCCCNC(=O)[C@@H]1CCC(=O)N1C(=O)OCc1ccccc1.O=C(O)C(F)(F)F [Example 16, trifluoroacetic acid benzyl (5S)-2-oxo-5-{[5-oxo-5-({4-oxo-1-[2-(propan-2-yloxy)ethyl]-2-sulfanylidene-1H,2H,3H,4H,5H-pyrrolo[3,2-d]pyrimidin-5-yl}methoxy)pentyl]carbamoyl} pyrrolidine-1-carboxylate]
- SGF [1, 12]: 96% remaining
- SIF [2, 13]: 93% remaining
- Caco-2 Papp (Caco-2 monolayer; Caco-2 monolayer): 9.03 nm/s
- human Plasma stability (Plasma Stability; [14]): 21% remaining

Compound: CC(C)OCCn1c(=S)[nH]c(=O)c2c1ccn2COC(=O)CCNC(=O)[C@@H]1CCC(=O)N1C(=O)OCc1ccccc1.O=C(O)C(F)(F)F [Example 17, trifluoroacetic acid benzyl (5S)-2-oxo-5-{[3-oxo-3-({4-oxo-1-[2-(propan-2-yloxy)ethyl]-2-sulfanylidene-1H,2H,3H,4H,5H-pyrrolo[3,2-d]pyrimidin-5-yl}methoxy)propyl]carbamoyl} pyrrolidine-1-carboxylate]
- SGF [1, 12]: 99% remaining
- SIF [2, 13]: 3% remaining
- Caco-2 Papp (Caco-2 monolayer; Caco-2 monolayer): 3.68 nm/s
- human Plasma stability (Plasma Stability; [14]): 38% remaining

Compound: CC(C)OCCn1c(=S)[nH]c(=O)c2c1ccn2COC(=O)CCCCNC(=O)[C@@H](N)CCc1ccccc1.O=C(O)C(F)(F)F [Example 24, trifluoroacetic acid {4-oxo-1-[2-(propan-2-yloxy)ethyl]-2-sulfanylidene-1H,2H,3H,4H,5H-pyrrolo [3,2-d]pyrimidin-5-yl} methyl 5-[(2S)-2-amino-4-phenylbutanamido]pentanoate]
- SGF [1, 12]: 99% remaining
- SIF [2, 13]: 76% remaining
- Caco-2 Papp (Caco-2 monolayer; Caco-2 monolayer): 3.02 nm/s
- human Plasma stability (Plasma Stability; [14]): 1% remaining

Compound: CSCC[C@H](N)C(=O)NCCC(=O)OCn1ccc2c1c(=O)[nH]c(=S)n2CCOC(C)C.O=C(O)C(F)(F)F [Example 32, trifluoroacetic acid {4-oxo-1-[2-(propan-2-yloxy)ethyl]-2-sulfanylidene-1H,2H,3H,4H,5H-pyrrolo [3,2-d]pyrimidin-5-yl} methyl 3-[(2S)-2-amino-4-(methylsulfanyl)butanamido]propanoate]
- SGF [1, 12]: 97% remaining
- SIF [2, 13]: 33% remaining
- Caco-2 Papp (Caco-2 monolayer; Caco-2 monolayer): 1.47 nm/s
- human Plasma stability (Plasma Stability; [14]): 17% remaining

Compound: CC(C)OCCn1c(=S)[nH]c(=O)c2c1ccn2COC(=O)CCCCNC(=O)[C@@H]1CCCN1C(N)=O.O=C(O)C(F)(F)F [Example 69, trifluoroacetic acid {4-oxo-1-[2-(propan-2-yloxy)ethyl]-2-sulfanylidene-1H,2H,3H,4H,5H-pyrrolo[3,2-d]pyrimidin-5-yl}methyl 5-{[(2S)-1-carbamoylpyrrolidin-2-yl]formamido}pentanoate Caco-2 Papp]
- SGF [1, 12]: 84% remaining
- SIF [2, 13]: 94% remaining
- Caco-2 Papp (Caco-2 monolayer; Caco-2 monolayer): 2.17 nm/s
- human Plasma stability (Plasma Stability; [14]): 7% remaining

- SGF [1, 8]: 1% remaining
- SIF [2, 9]: 74% remaining
- Caco-2 Papp (Caco-2 monolayer; [10]): unstable
- human Plasma stability (Plasma Stability; [11]): 0% remaining
Compound: CC(C)OCCn1c(=S)[nH]c(=O)c2c1ccn2C(C)OC(=O)OC(C)C (stereo not drawn) [Example 92, 1-{4-oxo-1-[2-(propan-2-yloxy)ethyl]-2-sulfanylidene-1H,2H,3H,4H,5H-pyrrolo[3,2-d]pyrimidin-5-yl}ethyl propan-2-yl carbonate]

- SGF [1, 8]: 100%
- SIF [2, 9]: 1%
- Caco-2 Papp (Caco-2 monolayer; unit inferred): 139 nm/s
- human Plasma stability (Plasma Stability; [11]): 2%
Compound: COCCOCCOC(=O)OCn1c(=O)c2c(ccn2COC(=O)OCCOCCOC)n(CCOC(C)C)c1=S [Example 106, {3-[{{[2-(2-methoxyethoxy)ethoxy]carbonyl}oxy)methyl]-4-oxo-1-[2-(propan-2-yloxy)ethyl]-2-sulfanylidene-1H,2H,3H,4H,5H-pyrrolo[3,2-d]pyrimidin-5-yl} methyl 2-(2-methoxyethoxy)ethyl carbonate]

Compound: CC(C)OCCn1c(SCOC(=O)OCCOCCN)nc(=O)c2c1ccn2COC(=O)OCCOCCN.O=C(O)C(F)(F)F.O=C(O)C(F)(F)F [Example 124]
- SGF [1, 12]: 67% remaining
- SIF [2, 13]: 57% remaining
- Caco-2 Papp (Caco-2 monolayer; Caco-2 monolayer): 11.8 nm/s
- human Plasma stability (Plasma Stability; [14]): 28% remaining
